In ChEMBL document CHEMBL1201862, “PubChem BioAssay data set” (2004):
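In this assay, cells in 96-well plates receive the compound at five concentrations for 48 hours. Endpoints are linearly interpolated between the surrounding concentrations. GI50: concentration for 50% inhibition of growth.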 Activity calls are given as the source filed them. No stated cut-off is given here; in the data, active = GI50 up to about 1.1 µM and inactive = higher.

Tests used:
Assay in all cases: NCI tumour cell line growth inhibition, 48 h
A498 = tested on: A498
A549 = tested on: A549
CAKI-1 = tested on: CAKI-1
HOP-62 = tested on: HOP-62
K562 = tested on: K562
KM12 = tested on: KM12
Malme-3M = tested on: Malme-3M
NCI-H226 = tested on: NCI-H226
NCI-H23 = tested on: NCI-H23
NCI-H460 = tested on: NCI-H460
RXF 393 = tested on: RXF 393
SF-539 = tested on: SF-539
SK-MEL-28 = tested on: SK-MEL-28
SNB-19 = tested on: SNB-19
TK-10 = tested on: TK-10
U-251 = tested on: U-251
UACC-62 = tested on: UACC-62
COLO 205 = tested on: COLO 205
OVCAR-5 = tested on: OVCAR-5
IGROV-1 = tested on: IGROV-1

Structure (SMILES)	GI50 (A498)	GI50 (A549)	GI50 (CAKI-1)	GI50 (HOP-62)	GI50 (K562)	GI50 (KM12)	GI50 (Malme-3M)	GI50 (NCI-H226)	GI50 (NCI-H23)	GI50 (NCI-H460)	GI50 (RXF 393)	GI50 (SF-539)	GI50 (SK-MEL-28)	GI50 (SNB-19)	GI50 (TK-10)	GI50 (U-251)	GI50 (UACC-62)	GI50 (COLO 205)	GI50 (OVCAR-5)	GI50 (IGROV-1)
O=C1c2ccccc2C(=O)c2[nH]cnc21	> 100 µM (inactive)	55.3 µM (inactive)	> 100 µM (inactive)	> 100 µM (inactive)	78.7 µM (inactive)	53.8 µM (inactive)	20 µM (inactive)	29.8 µM (inactive)	30.2 µM (inactive)	32.1 µM (inactive)	> 100 µM (inactive)	61.2 µM (inactive)	> 100 µM (inactive)	46.7 µM (inactive)	> 100 µM (inactive)	73.8 µM (inactive)	31.9 µM (inactive)			
COC(=O)C(=O)C(C(=O)C(=O)Nc1ccc([N+](=O)[O-])cc1C#N)c1nc2ccc([N+](=O)[O-])cc2nc1O (configuration not stated)	52.2 µM (inactive)	> 100 µM (inactive)	94.6 µM (inactive)	94.2 µM (inactive)	> 100 µM (inactive)	> 100 µM (inactive)	> 100 µM (inactive)	57.5 µM (inactive)		> 100 µM (inactive)	> 100 µM (inactive)	> 100 µM (inactive)		> 100 µM (inactive)	> 100 µM (inactive)	> 100 µM (inactive)	> 100 µM (inactive)	> 100 µM (inactive)	> 100 µM (inactive)	
CC1=C(C(=O)CC(=O)C(=O)Nc2ccccc2C(F)(F)F)Sc2ccccc2N1	> 100 µM (inactive)	51.1 µM (inactive)	53.2 µM (inactive)	33.9 µM (inactive)	49.1 µM (inactive)	39.1 µM (inactive)	> 100 µM (inactive)	15.6 µM (inactive)	22.1 µM (inactive)	57.1 µM (inactive)	15.8 µM (inactive)	31.2 µM (inactive)		35.1 µM (inactive)	> 100 µM (inactive)	64.9 µM (inactive)	38.5 µM (inactive)	> 100 µM (inactive)	> 100 µM (inactive)	44 µM (inactive)
COC(=O)c1ccc2c(c1)S/C(=C/c1ccc3ccc4cccc5ccc1c3c45)S2	31.6 µM (inactive)	42 µM (inactive)	40.1 µM (inactive)	37.1 µM (inactive)	34.3 µM (inactive)	24.4 µM (inactive)	32.7 µM (inactive)	> 100 µM (inactive)	19 µM (inactive)	64.4 µM (inactive)	50.4 µM (inactive)	> 100 µM (inactive)		50.6 µM (inactive)	98.4 µM (inactive)	48.8 µM (inactive)	22.9 µM (inactive)	> 100 µM (inactive)	> 100 µM (inactive)	46 µM (inactive)
C1OCN2c3nonc3N3COCN4c5nonc5N1C2C43 (configuration not stated)	> 100 µM (inactive)	> 100 µM (inactive)	> 100 µM (inactive)		78 µM (inactive)	49.2 µM (inactive)	> 100 µM (inactive)	> 100 µM (inactive)	> 100 µM (inactive)	> 100 µM (inactive)	> 100 µM (inactive)	> 100 µM (inactive)	> 100 µM (inactive)	> 100 µM (inactive)	> 100 µM (inactive)	> 100 µM (inactive)	> 100 µM (inactive)	40.3 µM (inactive)	> 100 µM (inactive)	> 100 µM (inactive)
CC(C)(C)c1ccc2c(c1)CNCCNCc1cc(C(C)(C)C)ccc1OCC1(CO2)COc2ccc(C(C)(C)C)cc2CNCCNCc2cc(C(C)(C)C)ccc2OC1	0.857 µM (active)	0.433 µM (active)	1.41 µM (inactive)	1.66 µM (inactive)	0.213 µM (active)	0.388 µM (active)	1.41 µM (inactive)	1.55 µM (inactive)	0.948 µM (active)	0.276 µM (active)	1.42 µM (inactive)	0.933 µM (active)	1.71 µM (inactive)	0.935 µM (active)	1.85 µM (inactive)	0.242 µM (active)	1.4 µM (inactive)	0.649 µM (active)	1.72 µM (inactive)	1.28 µM (inactive)
O=c1c2cc(Br)cc(Br)c2nc(CCCl)n1CCO	25 µM (inactive)	> 100 µM (inactive)	91 µM (inactive)	> 100 µM (inactive)	52.5 µM (inactive)	> 100 µM (inactive)	52.1 µM (inactive)	39 µM (inactive)	49.9 µM (inactive)	> 100 µM (inactive)	47.4 µM (inactive)	81.3 µM (inactive)	52 µM (inactive)		> 100 µM (inactive)	67.1 µM (inactive)	60.8 µM (inactive)	> 100 µM (inactive)	> 100 µM (inactive)	75.9 µM (inactive)
C/C(=N\NC(=S)N1CCN(c2ccccn2)CC1)c1ncccn1	2.07 µM (inactive)	0.166 µM (active)	1.76 µM (inactive)	0.106 µM (active)	0.00711 µM (active)	0.254 µM (active)	0.267 µM (active)	0.216 µM (active)	< 0.0288 µM (active)	0.0726 µM (active)	1.65 µM (inactive)	0.527 µM (active)	0.417 µM (active)	2.56 µM (inactive)	2.67 µM (inactive)	0.0369 µM (active)	0.0344 µM (active)	0.0569 µM (active)	0.0303 µM (active)	0.00275 µM (active)
NNC(=O)c1ccccc1NC(=O)/C(=C/c1ccccc1)NC(=O)c1ccccc1	> 100 µM (inactive)	> 100 µM (inactive)	> 100 µM (inactive)	49.1 µM (inactive)	> 100 µM (inactive)	27.8 µM (inactive)	> 100 µM (inactive)	> 100 µM (inactive)	> 100 µM (inactive)	80 µM (inactive)	> 100 µM (inactive)	> 100 µM (inactive)	> 100 µM (inactive)	43 µM (inactive)	> 100 µM (inactive)	58.6 µM (inactive)	> 100 µM (inactive)	> 100 µM (inactive)	> 100 µM (inactive)	68.1 µM (inactive)
CCOC(OC(C)=O)[C@@H]1C=C[C@H](C)N(c2ccc([N+](=O)[O-])cc2)O1 (some centres not stated)	27.6 µM (inactive)	20.2 µM (inactive)	7.8 µM (inactive)	10.7 µM (inactive)	2.73 µM (inactive)	2.5 µM (inactive)	7.98 µM (inactive)	5.57 µM (inactive)	2.84 µM (inactive)	10.6 µM (inactive)	0.759 µM (active)	2.54 µM (inactive)	3.01 µM (inactive)	14.7 µM (inactive)	5.7 µM (inactive)	2.74 µM (inactive)	2.54 µM (inactive)	11.9 µM (inactive)	2.76 µM (inactive)	7.98 µM (inactive)
Nc1ccccc1C(=O)/C=C/c1ccccc1O	> 100 µM (inactive)	45.5 µM (inactive)	25.6 µM (inactive)	> 100 µM (inactive)	29.8 µM (inactive)	31 µM (inactive)	> 100 µM (inactive)	> 100 µM (inactive)	56 µM (inactive)	67.1 µM (inactive)	61.1 µM (inactive)	78.7 µM (inactive)	> 100 µM (inactive)	81.1 µM (inactive)	93.5 µM (inactive)	95.9 µM (inactive)	57.1 µM (inactive)	> 100 µM (inactive)	> 100 µM (inactive)	> 100 µM (inactive)
CC(=O)CC(=O)Nc1ccccc1[N+](=O)[O-]	> 100 µM (inactive)	> 100 µM (inactive)	> 100 µM (inactive)	> 100 µM (inactive)	> 100 µM (inactive)	> 100 µM (inactive)	> 100 µM (inactive)	> 100 µM (inactive)	> 100 µM (inactive)	> 100 µM (inactive)	> 100 µM (inactive)	> 100 µM (inactive)	> 100 µM (inactive)	> 100 µM (inactive)	> 100 µM (inactive)	> 100 µM (inactive)	> 100 µM (inactive)	> 100 µM (inactive)	> 100 µM (inactive)	> 100 µM (inactive)
CO[C@]12CCC(=O)N1C=Cc1c2[nH]c2ccccc12	> 100 µM (inactive)	> 100 µM (inactive)	> 100 µM (inactive)	> 100 µM (inactive)	> 100 µM (inactive)		> 100 µM (inactive)	> 100 µM (inactive)	> 100 µM (inactive)	> 100 µM (inactive)	> 100 µM (inactive)	> 100 µM (inactive)	> 100 µM (inactive)	> 100 µM (inactive)	> 100 µM (inactive)		> 100 µM (inactive)	> 100 µM (inactive)	> 100 µM (inactive)	> 100 µM (inactive)
COc1cccc(-c2ccc3c4c2O[C@H]2c5[nH]c6ccccc6c5C[C@@]5(O)[C@@H](C3)N(CC3CC3)CC[C@]425)c1	2.19 µM (inactive)	1.77 µM (inactive)	2.1 µM (inactive)	1.74 µM (inactive)	1.9 µM (inactive)	1.85 µM (inactive)	1.5 µM (inactive)	6.84 µM (inactive)	2.21 µM (inactive)	1.79 µM (inactive)	1.66 µM (inactive)	1.78 µM (inactive)		2.05 µM (inactive)	1.72 µM (inactive)	1.77 µM (inactive)	1.67 µM (inactive)	1.81 µM (inactive)	7.08 µM (inactive)	1.64 µM (inactive)
